Key:
Assay type in all cases: in vivo
mice [1] = assay: Marble Burying Test (model for OCSD including OCD); details: 3 mg/kg, subcutaneous application
Method: A typical model for OCSD including OCD is the Marble Burying Test according to Y. Ichimaru, T. Egawa, A. Sawa, Jpn. J. Pharmacol. 1995, 68: 65-70.
The apparatus consists of an open cubic box with 25 clean glass marbles evenly spaced on sawdust. Individual mice are placed in the test box, and the number of glass marbles left uncovered after 20 minutes are counted. 1-[4-(5-cyanoindol-3-yl)butyl]-4-(2-carbamoyl-benzofuran-5-yl)-piperazine or one of its physiologically acceptable salts, in particular 1-[4-(5-cyanoindol-3-yl)butyl]-4-(2-carbamoyl-benzofuran-5-yl)-piperazine hydrochloride, following subcutaneous application inhibits mable burying in mice dose-dependently. For example, a dose of 3 mg/kg of 1-[4-(5-cyanoindol-3-yl)butyl]-4-(2-carbamoyl-benzofuran-5-yl)-piperazine hydrochloride nearly completely (92%) inhibits marble burying; equieffective doses of conventional serotonin reuptake inhibitors are e.g. 20 mg/kg for fluvoxamine or 17 mg/kg for fluoxetine and an equieffective dose of the 5-HT1A agonist ipsapirone is 10 mg/kg.

mice [2] = assay: Neophobia model: unfamiliar food in a novel environment; details: mice deprived from food for 18 h, oral application, 3 mg/kg
Method: In a typical model for neophobia, mice deprived from food for 18 h are given access to unfamiliar food in a novel environment [P. Soubrie at al., Psychopharmacologica, 1975, 45: 203-210]. 1-[4-(5-cyanoindol-3-yl)butyl]-4-(2-carbamoyl-benzofuran-5-yl)-piperazine or one of its physiologically acceptable salts, in particular 1-[4-(5-cyanoindol-3-yl)butyl]-4-(2-carbamoyl-benzofuran-5-yl)-piperazine hydrochloride, following oral application increased food intake by 21% at the dose of 3 mg/kg.

mice [3] = assay: Four Plate Test (model for acute stress indication); details: oral dose of 3 mg/kg, five minute test period
Method: A typical model for acute stress indication is the Four Plate Test according to C. Aron, P. Simon, C. Larousse, J. R. Boissier, Neuropharmacology 1971, 10: 459-469.
The apparatus consists of small box with a floor made up of four metal plates. Each time the mouse crosses from one plate to another, it is given a brief electric footshock reducing the amount of exploratory behavior. The number of punished crossings from one plate to another (i.e. number of shocks accepted by the animal) is recorded during a five minute test period. Normal mice make only few punished crossings, i.e. accept only a few footshocks.
1-[4-(5-cyanoindol-3-yl)butyl]-4-(2-carbamoyl-benzofuran-5-yl)-piperazine hydrochloride following and oral dose of 3 mg/kg increased the number of punished crossings by 41%.

rats [4] = assay: Passive Avoidance test with scopolamine (model for dementia); details: 10 mg/kg p.o., compared to untreated rats
Excerpt: Typical models for dementia, Alzheimer's disease and multi-infarct are the Passive Avoidance test in rats [S. D. Glick and B. Zimmerberg, Behav. Biol., 1972, 7: 245-254; D. K. Rush, Behav. Neural Biol., 1988, 50: 255-274] and the testing of memory functions in the Morris Water Maze in aged rats [R. Morris, J. Neurosci. Methods, 1984, 11: 47-60, F. H. Gage et al. Neurobiol. Aging. 1984, 5: 43-48].
For the Passive Avoidance test, the apparatus is a runway separated from a dark compartment by a small door. The amnestic drug scopolamine is administered before the animal is submitted to an aquisition trial: the rat is placed on the entry of the runway opposite to the dark compartment, the latency to enter the dark compartment is recorded, and once the rat has entered the dark compartment, the door is closed and a foot schock is administered via the gridfloor. A retention trial is performed 48 h later identical to the aquisition trial (without scopolamine) and the latency to enter the dark compartment recorded again. […]

rats [5] = test system: rats
Method: A typical animal model is the drug discrimination procedure in rats using cocaine as the stimulus cue (e.g. D. M. Wood and M. W. Emmett-Oglesby, J. Pharmacol. Exp. Ther., 1986; 237: 120-125; D. Huang and M. C. Wilson, Pharmacol. Biochem. Behav., 1986; 24: 205-210; J. M. Witkin at al., J. Pharmacol. Exp. Ther, 1991; 257: 706-713). Rats are trained to discriminate 10 mg/kg cocaine from saline in a two-lever discrimination procedure. Compounds which substitute for cocaine produce a dose-dependent increase in cocaine-appropriate responding, i.e. in selecting the cocaine-paired lever.
1-[4-(5-cyanoindol-3-yl)butyl]-4-(2-carbamoyl-benzofuran-5-yl)-piperazine or one of its physiologically acceptable salts, in particular 1-[4-(5-cyanoindol-3-yl)butyl]-4-(2-carbamoyl-benzofuran-5-yl)-piperazine hydrochloride, dose-dependently but only partially substituted for cocaine (maximally 60% choise of cocaine-paired lever at 50 mg/kg p.o.).

[6] = Cumulative Food Intake / development of body weight, rats or mice; details: free access to food
Method: A typical animal model for eating disorders and/or obesity and/or anorexia is named Cumulative Food Intake according to H. C. Jackson, A. M, Needham, L. J. Hutchins, S. E. Mazurkiewicz, D. J. Heal, Br. J. Pharmacol., 1997, 121: 1758-1762, which can be utilized in various species. Usually, rats or mice are given free access to food, and the development of body weight is measured over time. The test can be performed in both starved and non-starved rats or mice. Moreover, chronic or acute administration of a medication can be investigated.
Thus, differential effects on body weight indicating therapeutic efficacy in either obesity or anorexia depending on the dose range used are evident.

Cl.N#Cc1ccc2[nH]cc(CCCCN3CCN(c4ccc5oc(C(N)=O)cc5c4)CC3)c2c1 [1-[4-(5-cyanoindol-3-yl)butyl]-4-(2-carbamoyl-benzofuran-5-yl)-piperazine hydrochloride]
inhibition of marble burying (mice [1]): 92%
increase of food intake (mice [2]): 21%
increase of number of punished crossings (mice [3]): 41%
increase of latency to enter the dark compartment in the first retention trial (rats [4]): 78%
stimulus drug property by itself (abuse potential) (rats [5]; rat, in vivo): does not serve as a stimulus drug by itself
maximal choice of cocaine-paired lever (partial substitution for cocaine) (rats [5]; rats trained on 10 mg/kg cocaine vs saline, 50 mg/kg p.o.): 60%
body weight at lower doses ([6]; orally for 4 consecutive days, lower doses of up to 50 mg/kg): increased body weight
development of body weight at higher doses ([6]; orally up to 360 mg/kg for 4 consecutive days, higher doses): reduced development of body weight
